Test results as given in ChEMBL document CHEMBL1129553, “Synthesis and pharmacology of highly selective carboxy and phosphono isoxazole amino acid AMPA receptor antagonists” (J Med Chem, 1996).

Columns and labels:
Glutamate NMDA receptor = assay: In vitro inhibition of [3H]CPP binding to NMDA receptor.; format: protein-complex assay
[1] = target: Glutamate receptor ionotropic, kainate; assay: In vitro inhibition of [3H]KAIN binding to Ionotropic glutamate receptor kainate.; format: protein-complex assay
[2] = target: T1, Glutamate receptor ionotropic, AMPA (Rattus norvegicus, UniProt P19490+P19491+P19492+P19493); assay: In vitro inhibition of [3H]CNQX binding to Ionotropic glutamate receptor AMPA.; format: protein-complex assay
Rattus norvegicus = species on record: Rattus norvegicus; assay: Inhibitory activity against antagonism of AMPA induced responses in rat cortical slices; format: functional
[3] = target: T1, Glutamate receptor ionotropic, AMPA; assay: In vitro inhibition of [3H]AMPA binding to Ionotropic glutamate receptor AMPA.; format: protein-complex assay
[4] = target: T1, Glutamate receptor ionotropic, AMPA; assay: Inhibition of AMPA induced electrophysiological responses in rat cortical slices.; format: functional

SMILES	IC50 (Glutamate NMDA receptor) [µM]	IC50 [1] [µM]	IC50 [2] [µM]	IC50 (Rattus norvegicus) [µM]	IC50 [3] [µM]	IC50 [4] [µM]	Ki [4] [nM]
CC(C)(C)c1onc(OCP(=O)(O)O)c1CC(N)C(=O)O (stereo unspecified)	> 100	> 100					
Cc1onc(OCC(=O)O)c1CC(N)C(=O)O (stereo unspecified)			8	320			
NC(Cc1cc(OCC(=O)O)no1)C(=O)O (stereo unspecified)	> 100	> 100	> 100		> 100	> 1000	
NC(Cc1c(OCC(=O)O)noc1-c1cccs1)C(=O)O (stereo unspecified)	> 100	> 100	> 100		> 100	> 1000	
CCCC(CCC)c1onc(OCC(=O)O)c1CC(N)C(=O)O (stereo unspecified)	> 100	> 100	63		> 100	> 1000	
CC(C)(C)c1onc(OCC(=O)O)c1CC(N)C(=O)O (stereo unspecified)	> 100	> 100	12		33	150	
CCCCc1onc(OCP(=O)(O)O)c1CC(N)C(=O)O (stereo unspecified)	> 100	> 100	18		> 100	140	
NC(Cc1cc(OCP(=O)(O)O)no1)C(=O)O (stereo unspecified)	> 100	> 100	> 100		> 100	> 1000	
NC(Cc1c(OCP(=O)(O)O)noc1-c1ccccc1)C(=O)O (stereo unspecified)	> 100	> 100	> 100		> 100	> 1000	
CCCCc1onc(OCC(=O)O)c1CC(N)C(=O)O (stereo unspecified)	> 100	> 100	87		> 100	> 1000	
CC(C)(C)Cc1onc(OCP(=O)(O)O)c1CC(N)C(=O)O (stereo unspecified)	> 100	> 100	35		> 100	> 1000	
CCCC(CCC)c1onc(OCP(=O)(O)O)c1CC(N)C(=O)O (stereo unspecified)		> 100			> 100	350	
NC(Cc1c(OCP(=O)(O)O)noc1-c1cccs1)C(=O)O (stereo unspecified)	> 100	> 100	> 100		> 100	360	
O=C(O)[C@H]1CN(CCCP(=O)(O)O)CCN1	0.05				> 100		1600
O=C(O)C1Cc2c(OCP(=O)(O)O)noc2CN1 (stereo unspecified)	22	> 100	> 100		> 100		
Cc1onc(OCP(=O)(O)O)c1CC(N)C(=O)O (stereo unspecified)	> 100	> 100	6.9		31	60	
NC(Cc1c(OCC(=O)O)noc1-c1ccccc1)C(=O)O (stereo unspecified)	> 100	> 100	> 100		> 100	> 1000	
CC(C)(C)Cc1onc(OCC(=O)O)c1CC(N)C(=O)O (stereo unspecified)	> 100	> 100	> 100		> 100	> 1000	
N#Cc1cc2c(cc1[N+](=O)[O-])=NC(=O)C(=O)N=2	25	1.5					
